# Experimental data as given in US20080261895A1 (Wyeth, priority 2006, published 2008).
# What was measured:
# [1] = Metabolites of DVS observed by LC/MS in rat plasma, urine and feces; format: in vivo, Sprague Dawley rats; settings: P: plasma, U: urine, F: feces
# Procedure: (§1) An Agilent Model 1100 HPLC system (Agilent Technologies, Wilmington, Del.) including an autosampler and diode array UV detector was used for LC/MS analysis. The UV detector was set to monitor 200 to 400 nm. Separations were accomplished on a 5 micron Phenomenex Luna C18(2) column, 150×2 mm (Phenomenex). The column temperature was 25° C. The mobile phases and gradient program were as follows.
# The mass spectrometer used for metabolite characterization was a Micromass Q-TOF-2 quadrupole time-of-flight hybrid mass spectrometer (Micromass, Inc., Beverly, Mass.). The mass spectrometer was equipped with an electrospray ionization (ESI) interface and operated in the positive ionization mode.
# [2] = Metabolites of DVS observed by LC/MS in dog plasma, urine and feces; format: in vivo, beagle dogs; settings: P: plasma, U: urine, F: feces
# Procedure: as §1, with “For selected LC/MS analyses, radiochromatograms” for “The mobile phases and gradient program”, “acquired using a β-RAM model 3 radioactivity flow detector (IN/US Systems Inc., Tampa, Fla.) equipped with a solid scintillation flow cell.” for “as follows.”
# The mass spectrometers used for metabolite characterization were a Micromass Q-TOF-2 quadrupole time-of-flight hybrid mass spectrometer (Micromass, Inc., Beverly, Mass.) and a Finnigan LCQ Deca ion trap mass spectrometer (ThermoFinnigan, San Jose, Calif.). The mass spectrometer was equipped with an electrospray ionization (ESI) interface and operated in the positive ionization mode.
# [3] = tested on: Reserpine-Induce Hypothermia; settings: cited from earlier work
# [4] = biological target: D2 (Homo sapiens, UniProt P14416); settings: cited from earlier work
# Chain of D2 (P14416 whole entry): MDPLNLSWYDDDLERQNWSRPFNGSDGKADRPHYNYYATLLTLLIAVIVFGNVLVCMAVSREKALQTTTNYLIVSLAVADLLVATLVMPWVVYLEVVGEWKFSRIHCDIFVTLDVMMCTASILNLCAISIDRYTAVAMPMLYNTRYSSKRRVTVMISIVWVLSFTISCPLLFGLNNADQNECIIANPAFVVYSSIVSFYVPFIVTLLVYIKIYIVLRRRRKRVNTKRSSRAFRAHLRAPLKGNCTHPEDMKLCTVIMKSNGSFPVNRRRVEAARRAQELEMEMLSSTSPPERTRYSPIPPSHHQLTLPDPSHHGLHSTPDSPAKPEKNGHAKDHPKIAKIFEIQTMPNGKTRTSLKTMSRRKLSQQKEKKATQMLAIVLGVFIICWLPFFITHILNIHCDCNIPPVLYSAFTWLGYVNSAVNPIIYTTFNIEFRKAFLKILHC
# [5] = tested on: s Cholinergic; settings: cited from earlier work
# [6] = tested on: Adrenergic a; settings: cited from earlier work
# [7] = biological target: Histamine Hi (Homo sapiens, UniProt P35367); settings: cited from earlier work
# Chain of Histamine Hi (P35367 whole entry): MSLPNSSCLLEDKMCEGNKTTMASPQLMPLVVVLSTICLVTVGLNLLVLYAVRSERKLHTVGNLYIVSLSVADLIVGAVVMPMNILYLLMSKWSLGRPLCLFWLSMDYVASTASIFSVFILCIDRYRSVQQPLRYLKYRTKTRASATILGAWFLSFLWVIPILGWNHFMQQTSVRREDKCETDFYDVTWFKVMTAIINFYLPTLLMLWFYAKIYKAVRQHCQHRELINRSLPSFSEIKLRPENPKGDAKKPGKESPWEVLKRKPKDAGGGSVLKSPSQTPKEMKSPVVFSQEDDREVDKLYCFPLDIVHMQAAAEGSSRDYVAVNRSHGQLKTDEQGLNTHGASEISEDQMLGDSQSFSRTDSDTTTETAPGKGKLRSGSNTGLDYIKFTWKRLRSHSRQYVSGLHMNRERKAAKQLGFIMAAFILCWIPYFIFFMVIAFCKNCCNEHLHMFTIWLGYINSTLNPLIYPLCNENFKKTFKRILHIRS
# [8] = tested on: Opiate; settings: cited from earlier work
# [9] = tested on: dog liver microsomes; assay: Glucuronidation in dog liver microsomes; format: in vitro ADME; settings: dog liver microsomes 1 mg/mL, 100 μM, 30 minutes
# Procedure: To confirm the site of glucuronidation of DVS, incubations were performed using dog liver microsomes. These incubations compared the glucuronidation of DVS to venlafaxine. […] Reactions were initiated by the addition of UDPGA (final concentration 1 mM). An additional set of incubations was performed for venlafaxine with UDPGA and an NADPH generating system. […] Reactions were stopped by the addition of 500 μL of acetonitrile and processed as described above. Samples were analyzed by LC/MS.
# [10] = tested on: monoamine oxidase; settings: cited from earlier work
# [11] = tested on: histaminergic receptors; settings: in vitro; cited from earlier work
# [12] = tested on: adrenergic receptors; settings: in vitro; cited from earlier work
Matrix (metabolite observed by LC/MS) [1],Matrix (metabolite observed by LC/MS) [2],SMILES,Reversal of Reserpine-Induce Hypothermia (minimum effect; mg&g i.p.) [3] [mg&g],Affinity for Various Neuroreceptors (% inhibition at 1 uM): D2 [4] [%],Affinity for Various Neuroreceptors (% inhibition at 1 uM): s Cholinergic [5] [%],Affinity for Various Neuroreceptors (% inhibition at 1 uM): Adrenergic a [6] [%],Affinity for Various Neuroreceptors (% inhibition at 1 uM): Histamine Hi [7] [%],Affinity for Various Neuroreceptors (% inhibition at 1 uM): Opiate [8] [%],glucuronidation ([9]; in the presence of both UDPGA and NADPH),glucuronidation ([9]; in the presence of only UDPGA),inhibitory activity on monoamine oxidase [10],affinity for histaminergic receptors [11],affinity for adrenergic receptors [12]
"P, U, F","P, U, F","CN(C)CC(c1ccc(O)cc1)C1(O)CCCCC1 (stereo not shown) [O-DESMETHYLVENLAFAXINE, 1-[2-(dimethylamino)-1-(4-phenol)ethyl]-cyclohexanol]",3,6,7,0,0,7,–,–,–,–,–
–,–,"COc1ccc(C(CN(C)C)C2(O)CCCCC2)cc1 (stereo not shown) [venlafaxine, 1-[2-(dimethylamino)-1-(4-methoxyphenyl)ethyl]cyclohexanol]",–,–,–,–,–,–,observed,not,no inhibitory activity,virtually no affinity,virtually no affinity
